Data as given in patent publication US12642270B2, “Substituted thiophene carboxamides, thiophene carboxylic acids and derivatives thereof” (Bayer Aktiengesellschaft, priority 2019, dated 2026).

Assay: Log P by HPLC on reversed phase columns (EEC directive 79/831 Annex V.A8)
Assay type: physicochemical
Conditions: for chromatographic logP: reversed phase HPLC columns
Protocol: In the above tables, measurement of Log P values was performed according to EEC directive 79/831 Annex V.A8 by HPLC (High Performance Liquid Chromatography) on reversed phase columns with the following methods: • ^[a] Log P value is determined by measurement of LC-UV, in an acidic range, with 0.1% formic acid in water and acetonitrile as eluent (linear gradient from 10% acetonitrile to 95% acetonitrile). • ^[b] Log P value is determined by measurement of LC-UV, in a neutral range, with 0.001 molar ammonium acetate solution in water and acetonitrile as eluent (linear gradient from 10% acetonitrile to 95% acetonitrile). • ^[c] Log P value is determined by measurement of LC-UV, in an acidic range, with 0.1% phosphoric acid and acetonitrile as eluent (linear gradient from 10% acetonitrile to 95% acetonitrile). If more than one Log P value is available within the same method, all the values are given and separated by “+”. Calibration was done with straight-chain alkan2-ones (with 3 to 16 carbon atoms) with known Log P values (measurement of Log P values using retention times with linear interpolation between successive alkanones). Lambda-max-values were determined using UV-spectra from 200 nm to 400 nm and the peak values of the chromatographic signals.

[1] = method marker [a] given with each value, Table 1.1, compounds of formula (I)
[2] = method [a]: LC-UV, acidic range, 0.1% formic acid in water and acetonitrile
[3] = LogP method [a], compounds of formula (I), Table 1.1
[4] = method [a], compounds of formula (I), Table 1.1

## CCOC(=O)CN(O)C(=O)c1sc(Br)c(Br)c1F [1.0542]
Method [a]
  LogP: 2.54^[a]

## COC(=O)C(NC(=O)c1sc(C#N)c(Br)c1Cl)C1CC1 (centres unmarked) [1.0587]
Method [a]
  LogP: 3.08^[a]

## COC(=O)[C@H](CC(N)=O)NC(=O)c1sc(Cl)c(Cl)c1Br [1.1047]
[1]
  LogP: 2.23^[a]

## COC(=O)C(NC(=O)c1sc(Cl)c(Br)c1C)C(=O)OC [1.0267]
Method [a]
  LogP: 3.07^[a]

## COC(=O)c1sc(Br)c(Cl)c1F [II.020]
[2]
  LogP: 3.47^[a]

## COC(=O)C1(NC(=O)c2sc(Cl)c(Cl)c2Br)CCC1 [1.1004]
[1]
  LogP: 3.85^[a]

## CCOC(=O)CNC(=S)c1sc(Cl)c(Br)c1Cl [1.0484]
[3]
  LogP: 4.59^[a]

## O=C(NC1(C(=O)OC2CCCCC2)CCC1)c1sc(Br)c(Br)c1Cl [1.0918]
Method [a]
  LogP: 5.89^[a]

## CCOC(=O)C(CSC)NC(=O)c1sc(C#N)c(Cl)c1Cl (centres unmarked) [1.0752]
Method marked [a]
  LogP: 3.54^[a]

## CCOC(=O)C1(NC(=O)c2sc(Br)c(Cl)c2Cl)CCC1 [1.0199]
Method [a]
  LogP: 4.26^[a]

## CCOC(=O)C(CSC)NC(=O)c1sc(Br)c(Br)c1Cl (centres unmarked) [1.0550]
Method [a]
  LogP: 4.32^[a]

## COC(=O)C1(NC(=O)c2sc(C#N)c(Cl)c2Br)CCC1 [1.0672]
Method marked [a]
  LogP: 2.96^[a]

## CC(C)C(C#N)NC(=O)c1sc(Br)c(Br)c1Cl (centres unmarked) [1.0874]
Method [a]
  LogP: 3.88^[a]

## N#CCNC(=O)c1sc(Br)c(C#N)c1Cl [1.0652]
Method [a]
  LogP: 2.03^[a]

## COC(=O)[C@H](CCSC)NC(=O)c1sc(C#N)c(Br)c1Br [1.0734]
Method marked [a]
  LogP: 3.40^[a]

## COC(=O)C1(NC(=O)c2sc(Cl)c(Br)c2C#N)CCC1 [1.0629]
Method [a]
  LogP: 2.82^[a]

## CCOC(=O)C(CC1CC1)NC(=O)c1sc(Cl)c(Br)c1C (centres unmarked) [1.0268]
Method [a]
  LogP: 4.30^[a]

## CCOC(=O)C1(NC(=O)c2sc(Br)c(Br)c2C(F)(F)F)CC1 [1.0370]
Method marked [a]
  LogP: 3.26^[a]

## COC(=O)CNC(=O)c1cc(F)c(Cl)s1 [1.0307]
Method marked [a]
  LogP: 1.94^[a]

## COC(=O)C1(NC(=S)c2sc(Cl)c(Br)c2C)CC1 [1.0332]
Method marked [a]
  LogP: 3.71^[a]

## COC(=O)CNC(=O)c1sc(Cl)c(Cl)c1F [1.0343]
Method marked [a]
  LogP: 2.43^[a]

## CCOC(=O)C1(NC(=O)c2sc(Cl)c(Br)c2F)CC1 [1.0636]
Method [a]
  LogP: 3.10^[a]

## COC(=O)C(CC(F)F)NC(=O)c1sc(Cl)c(Br)c1Br (centres unmarked) [1.0214]
Method [a]
  LogP: 3.64^[a]

## COC(=O)C(C)(C)NC(=O)c1sc(Br)c(C#N)c1Cl [1.0693]
Method marked [a]
  LogP: 2.84^[a]

## CCOC(=O)C(CC(F)(F)F)NC(=O)c1sc(Br)c(Cl)c1C (centres unmarked) [1.0045]
[4]
  LogP: 3.94^[a]

## N#Cc1sc(C(=O)O)cc1Br [II.036]
[2]
  LogP: 1.41^[a]

## CCOC(=O)C1(NC(=O)c2cc(F)c(Br)s2)CCC1 [1.0459]
[3]
  LogP: 2.98^[a]

## COC(=O)CNC(=O)c1sc(Cl)c(C)c1Cl [1.0892]
Method [a]
  LogP: 2.64^[a]

## COC(=O)C1(NC(=O)c2sc(C(F)F)c(Br)c2Br)CCC1 [1.0517]
[3]
  LogP: 3.35^[a]

## COC(=O)CNC(=S)c1sc(Cl)c(Cl)c1Br [1.0851]
Method [a]
  LogP: 4.09^[a]

## CCOC(=O)CNC(=O)c1sc(Br)c(C#N)c1Br [1.0407]
[3]
  LogP: 2.61^[a]

## O=C(O)CNC(=O)c1sc(Cl)c(Br)c1Cl [1.0875]
Method [a]
  LogP: 2.18^[a]

## COC(=O)CNC(=O)c1sc(C)c(Cl)c1Cl [1.0564]
Method [a]
  LogP: 2.45^[a]

## CN(C)C(=S)C1(NC(=O)c2sc(Br)c(Br)c2F)CC1 [1.0977]
[1]
  LogP: 2.93^[a]

## CCOC(=O)CNC(=S)c1sc(Br)c(Br)c1Cl [1.0493]
[3]
  LogP: 4.58^[a]

## COC(=O)C(NC(=O)c1sc(C#N)c(Br)c1C)C1CC1 (centres unmarked) [1.0261]
Method [a]
  LogP: 2.75^[a]

## O=C(CNC(=O)c1sc(Br)c(Br)c1F)Sc1ccccc1 [1.0016]
[4]
  LogP: 3.89^[a]

## O=C(NC1(C(=O)O)CC1)c1sc(Cl)c(Br)c1F [1.0702]
Method marked [a]
  LogP: 2.15^[a]

## CCOC(=O)C(NC(=O)c1cc(Br)c(Cl)s1)C(C)C (centres unmarked) [1.0437]
[3]
  LogP: 3.87^[a]

## COC(=O)C(CC(F)F)NC(=O)c1sc(Br)c(Cl)c1Cl (centres unmarked) [1.0201]
Method [a]
  LogP: 3.60^[a]

## O=C(NC1(C(=O)OC2CCCCC2)CCC1)c1sc(Cl)c(Cl)c1Br [1.0880]
Method [a]
  LogP: 5.89^[a]

## CCOC(=O)C(Cc1ccccc1)NC(=O)c1sc(Br)c(Cl)c1C (centres unmarked) [1.0080]
[4]
  LogP: 4.46^[a]

## CC(C)CC(NC(=O)c1sc(Br)c(Br)c1F)C(=O)O (centres unmarked) [1.0229]
Method [a]
  LogP: 3.34^[a]

## CCCOC(=O)C1(NC(=O)c2sc(C(F)F)c(Br)c2Br)CC1 [1.0519]
[3]
  LogP: 3.51^[a]

## CCOC(=O)C(C#N)NC(=O)c1sc(Cl)c(Br)c1Br (centres unmarked) [1.0744]
Method marked [a]
  LogP: 3.38^[a]

## COC(=O)C1(NC(=O)c2sc(I)c(Cl)c2Cl)CC1 [1.0828]
Method [a]
  LogP: 3.01^[a]

## CCOC(=O)c1sc(Cl)c(Cl)c1C#N [II.053, ethyl 4,5-dichloro-3-cyanothiophene-2-carboxylate]
[2]
  chromatographic logP: 3.54
Value in preparation example, method not marked
  chromatographic logP: 3.54

## CCOC(=O)CNC(=O)c1cc(Br)c(C#N)s1 [1.0052]
[4]
  LogP: 2.16^[a]

## Cc1c(C(=O)O)sc(C#N)c1Cl [II.016]
[2]
  LogP: 1.95^[a]

## N#Cc1sc(C(=O)NC2(C(=O)OC3CCC3)CC2)c(Cl)c1Cl [1.0581]
Method [a]
  LogP: 3.30^[a]

## COC(=O)[C@H](CCSC)NC(=O)c1sc(Br)c(Cl)c1C [1.0768]
Method marked [a]
  LogP: 3.60^[a]

## COC(=O)C(NC(=O)c1cc(Br)c(Cl)s1)C1CC1 (centres unmarked) [1.0260]
Method [a]
  LogP: 3.07^[a]

## N#CCNC(=O)c1sc(C#N)c(Br)c1Cl [1.0569]
Method [a]
  LogP: 2.08^[a]

## CCOC(=O)C1(NC(=O)c2sc(Br)c(C#N)c2Cl)CC1 [1.0691]
Method marked [a]
  LogP: 2.71^[a]

## O=C(NC1(C(=O)O)CC1)c1cc(Br)c(Cl)s1 [1.0169]
Method [a]
  LogP: 2.02^[a]

## COC(=O)C1(NC(=O)c2sc(Cl)c(C#N)c2Br)CC1 [1.0656]
Method [a]
  LogP: 2.34^[a]

## Cc1c(C(=O)NC2(C#N)CCC2)sc(C#N)c1Br [1.1015]
[1]
  LogP: 2.64^[a]

## CCOC(=O)C(Cc1ccc(O)cc1)NC(=O)c1sc(Br)c(Br)c1F (centres unmarked) [1.0136]
Method [a]
  LogP: 3.31^[a]

## CCOC(=O)CN(OC)C(=O)c1sc(C#N)c(Br)c1C [1.0749]
Method marked [a]
  LogP: 3.23^[a]

## N#CCNC(=O)c1sc(Br)c(Br)c1C(F)(F)F [1.0365]
Method marked [a]
  LogP: 2.61^[a]

## COC(=O)C1(NC(=O)c2sc(Br)c(Br)c2F)CCC(F)(F)CC1 [1.0010]
[4]
  LogP: 3.74^[a]

## CCOC(=O)C(C)NC(=O)c1sc(Cl)c(Cl)c1F (centres unmarked) [1.0345]
Method marked [a]
  LogP: 3.34^[a]

## CCOC(=O)C(CSC(C)=O)NC(=O)c1sc(Br)c(Br)c1Cl (centres unmarked) [1.0561]
Method [a]
  LogP: 3.44^[a]

## NC(=S)C1(NC(=O)c2sc(Br)c(Br)c2F)CC1 [1.0900]
Method [a]
  LogP: 2.42^[a]

## COC(=O)[C@H](CCSC)NC(=O)c1sc(C#N)c(Cl)c1C [1.0730]
Method marked [a]
  LogP: 2.97^[a]

## CCNC(=O)SC[C@H](NC(=O)c1sc(Cl)c(Cl)c1Br)C(=O)OC [1.0530]
Method [a]
  LogP: 3.39^[a]

## CCOC(=O)c1sc(Br)c(C#N)c1Cl [II.091]
[2]
  LogP: 3.44^[a]

## CCOC(=O)C(CSC)NC(=O)c1sc(Cl)c(Br)c1C (centres unmarked) [1.0753]
Method marked [a]
  LogP: 3.97^[a]

## CCCCOC(=O)C1(NC(=O)c2sc(Br)c(Br)c2Cl)CCC1 [1.0907]
Method [a]
  LogP: 5.20^[a]

## COC(=O)C1(NC(=O)c2cc(Br)c(C#N)s2)CC1 [1.0281]
Method marked [a]
  LogP: 2.10^[a]

## COC(=O)C[C@H](NC(=O)c1sc(Br)c(Br)c1F)C(=O)OC [1.0555]
Method [a]
  LogP: 2.99^[a]

## Cc1c(C(=O)NC2(C(=O)OCC(C)C)CC2)sc(C#N)c1Br [1.0970]
[1]
  LogP: 3.33^[a]

## CCOC(=O)C(NC(=O)c1sc(Br)c(Br)c1F)C(=O)OCC [1.0772]
Method marked [a]
  LogP: 3.91^[a]
